Reference: patent US20210386736A1, “COMBINATION THERAPY FOR TREATING CANCER” (AstraZeneca AB, priority 2018, published 2021)

Assays:
[1] = tested on: KG1a AML cells; test: KG1a subcutaneous AML xenograft, tumor volume over time; type: in vivo, SCID mice; details: FIG. 1; AZD2811 nanoparticles 100 mg/kg iv once weekly, venetoclax 100 mg/kg orally daily, 3 weekly cycles
Procedure: (§1) KGa1: 2×10^7 KG1a AML cells in 50% matrigel were implanted subcutaneously on the left flank of adult female SCID mice. Mice were randomised by tumor volume at D7 into groups of 8, with an average tumor volume of 0.2 cm^3 and all dosing was started. AZD2811 nanoparticles were dosed at once weekly with a 20-30 s intravenous infusion at either 100 mg/kg (100 mg/kg was the maximum tolerated dose in combination with venetoclax (ABT-199) 100 mg/kg; venetoclax was administered orally daily at 100 mg/kg). All drugs were given for 3 weekly cycles.
as §1, with “HL-60: 1×10^7 HL-60 AML” for “KGa1: 2×10^7 KG1a AML”, “either 50 mg/kg, 25 mg/kg, 12.5 mg/kg and 6.25” for “either 100”, “cycles. For both models, tumors were measured twice weekly by single operators, and all dosing was performed by randomised cage to minimise systematic bias. […] All drugs were given for 2 weekly cycles, the study endpoint was determined by a welfare scoring table.” for “cycles.”

[2] = tested on: HL-60 AML cells; test: HL-60 subcutaneous AML xenograft, tumor volume over time; type: in vivo, SCID mice; details: FIG. 2; AZD2811 nanoparticles 50, 25, 12.5 or 6.25 mg/kg iv once weekly, venetoclax 100 mg/kg orally daily, 3 weekly cycles; combination benefit notably at the lowest doses of AZD2811
Procedure: HL-60: 1×10^7 HL-60 AML cells in 50% matrigel were implanted subcutaneously on the left flank of adult female SCID mice. Mice were randomised by tumor volume at D7 into groups of 8, with an average tumor volume of 0.2 cm^3 and all dosing was started. AZD2811 nanoparticles were dosed at once weekly with a 20-30 s intravenous infusion at either 50 mg/kg, 25 mg/kg, 12.5 mg/kg and 6.25 mg/kg (100 mg/kg was the maximum tolerated dose in combination with venetoclax (ABT-199) 100 mg/kg; venetoclax was administered orally daily at 100 mg/kg). All drugs were given for 3 weekly cycles. For both models, tumors were measured twice weekly by single operators, and all dosing was performed by randomised cage to minimise systematic bias. For the MOLM-13 orthotopic model, 1×10^6 MOLM-13 cells were injected into the tail vien of adult female NOG mice. After 3 days, mice were randomised by body-weight into groups of 8 and treatment was commenced the following day. AZD2811 nanoparticles were dosed at once weekly with a 20-30 s intravenous infusion at 25 mg/kg (25 mg/kg was the maximum tolerated dose in combination with venetoclax (ABT-199) 100 mg/kg; venetoclax was administered orally daily at 100 mg/kg). […] All drugs were given for 2 weekly cycles, the study endpoint was determined by a welfare scoring table.

`CC1(C)CCC(CN2CCN(c3ccc(C(=O)NS(=O)(=O)c4ccc(NCC5CCOCC5)c([N+](=O)[O-])c4)c(Oc4cnc5[nH]ccc5c4)c3)CC2)=C(c2ccc(Cl)cc2)C1` [venetoclax, Venetoclax] was tested, and the “efficacy (KG1a tumor volume over time)” value [1] was “modestly efficacious” and the “efficacy (HL-60 tumor volume over time)” value [2] was “active”.
